In patent publication US11033547B2, “Carboxamide-pyrimidine derivatives as SHP2 antagonists” (Merck Patent GmbH, priority 2019, dated 2021):
Where two headings read alike, the source gives them in different places.

How the values were obtained:
[1] = tested on: pERK level in KYSE520 cells; test: p-Erk cellular assay in KYSE520 (Mesoscale); format: cell-based; details: 2 h incubation, read-out: pERK1/2 in KYSE520 IC50
Method: p-Erk Cellular Assay in MDA-MB-468 and KYSE520:
The effect of SHP2 inhibitors on pERK level was assessed using phospho-specific antibody using Mesoscale quantification platform. For measuring change in pERK levels using mesoscale, 30,000 cells of MDA MB468 and KYSE520 cells were plated in 96-well tissue culture treated plate in 175 ul volume of media. After an overnight incubation at 37° C., various SHP2 inhibitors were added in different concentration to each well maintaining duplicate wells across plates and incubated with compounds for 2 h at 37° C. followed by a wash with ice cold PBS buffer. The cells were then lysed in lysis buffer and processed and analyzed for p-ERK/ERK as per manufacturer's instructions (Mesoscale discovery, cat No. K15107D-3).

[2] = target: Full length SHP2 protein (Recombinant Human SHP-2) (Homo sapiens, UniProt Q06124); test: SHP2 biochemical assay (DiFMUP substrate, activating peptide IRSI_2pY); details: DiFMUP substrate, activating peptide IRSI_2pY, 60 min at RT; read-out: SHP-2 Biochemical assay IC50
Method: The inhibition of SHP2 by compounds of the invention was monitored using the surrogate substrate DiFMUP after protein activation by a peptide bearing two appropriately spaced phosphotyrosine. […] The generation of the DiFMU product by activated SHP2 was monitored through Fluorescence measurement with a PerkinElmer Envision reader.
The inhibitor dose response curves were analyzed with Genedata Screener.

| Compound | IC50 [1] [µM] | IC50 [2] [µM] | IC50 ([1]; Homo sapiens, KYSE-520, 2 h) [µM] |
| --- | --- | --- | --- |
| 2-((S)-3-amino-3H-spiro[benzofuran-2,4′-piperidin]-1′-yl)-5-(2,3-dichlorophenyl)-6-methylpyrimidine-4-carboxamide [Compound 122] | 0.048 | 0.017 | – |
| Cc1nc(N[C@@H]2CCC[C@H](N)C2)nc(C(N)=O)c1-c1cccc(Cl)c1Cl (atropisomer, axis not shown; (M)) [Compound 88, (4M)-2-{[(1R,3S)-3-aminocyclohexyl]amino}-5-(2,3-dichlorophenyl)-6-methylpyrimidine-4-carboxamide] | – | 0.41 | 4.25 |
| Cc1nc(N2CCC3(CC2)CC(F)(F)C[C@H]3N)nc(C(N)=O)c1-c1cccc(Cl)c1Cl (single isomer, unassigned) [Compound 96] | – | – | 0.993 |
| NC[C@@]12CCCC[C@@H]1CN(c1nc(N)c(-c3cccc(Cl)c3Cl)c(C(N)=O)n1)C2 (single isomer, unassigned) [Compound 100] | – | 0.5 | 12.8 |
| NC[C@]12CCC[C@H]1CN(c1nc(N)c(-c3cccc(Cl)c3Cl)c(C(N)=O)n1)C2 (single isomer, unassigned) [Compound 104] | – | 0.12 | 2.25 |
| NC(=O)c1nc(N2CC(N)C2)nc(N)c1-c1cccc(Cl)c1Cl [Compound 69, 6-amino-2-(3-aminoazetidin-1-yl)-5-(2,3-dichlorophenyl)-pyrimidine-4-carboxamide] | – | 5.6 | – |
| NC[C@@H]1[C@H]2CN(c3nc(N)c(-c4cccc(Cl)c4Cl)c(C(N)=O)n3)C[C@@H]12 [Compound 70, 6-amino-2-[(1R,5S,6R)-6-(aminomethyI)-3-azabicyclo-[3.1.0]hexan-3-yl]-5-(2,3-dichlorophenyl)pyrimidine-4-carboxamide] | – | 5.3 | – |
| NCC1CCN1c1nc(N)c(-c2cccc(Cl)c2Cl)c(C(N)=O)n1 (stereo not drawn) [Compound 71, 6-amino-2-[2-(aminomethyl)-azetidin-1-yl]-5-(2,3-dichlorophenyl)pyrimidine-4-carboxamide] | – | 1.3 | – |
| Cc1nc(N2C[C@H]3CC[C@@H](N)[C@H]3C2)nc(C(N)=O)c1-c1cccc(Cl)c1Cl [Compound 72, 2-((3aR,4R,6aS)-4-Amino-hexahydro-cyclopenta-[c]pyrrol-2-yl)-5-(2,3-dichloro-phenyl)-6-methyl-pyrimidine-4-carboxylic acid amide] | – | 6.7 | – |
| Cc1nc(N2C[C@H]3CCC(N)[C@@H]3C2)nc(C(N)=O)c1-c1cccc(Cl)c1Cl (stereo partly drawn) [Compound 73, 2-((3aS,6aS)-4-Amino-hexahydro-cyclopenta-[c]pyrrol-2-yl)-5-(2,3-dichloro-phenyl)-6-methyl-pyrimidine-4-carboxylic acid amide] | – | 5.2 | – |
| Cc1nc(N2C[C@@H]3CC[C@H](N)[C@@H]3C2)nc(C(N)=O)c1-c1cccc(Cl)c1Cl [Compound 74, 2-((3aS,4S,6aR)-4-Amino-hexahydro-cyclopenta-[c]pyrrol-2-yl)-5-(2,3-dichloro-phenyl)-6-methyl-pyrimidine-4-carboxylic acid amide] | – | > 10 | – |
| Cc1nc(N2C[C@@H]3CC[C@@H](N)[C@@H]3C2)nc(C(N)=O)c1-c1cccc(Cl)c1Cl [Compound 75, 2-((3aS,4R,6aR)-4-Amino-hexahydro-cyclopenta[c]pyrrol-2-yl)-5-(2,3-dichloro-phenyl)-6-methyl-pyrimidine-4-carboxylic acid amide] | – | 2.1 | – |
| Cc1nc(N2C[C@@H]3CCC(N)[C@H]3C2)nc(C(N)=O)c1-c1cccc(Cl)c1Cl (stereo partly drawn) [Compound 76, 2-((3aR,6aR)-4-Amino-hexahydro-cyclopenta-[c]pyrrol-2-yl)-5-(2,3-dichloro-phenyl)-6-methyl-pyrimidine-4-carboxylic acid amide] | – | 1 | – |
| Cc1nc(N2C[C@H]3CC[C@H](N)[C@H]3C2)nc(C(N)=O)c1-c1cccc(Cl)c1Cl [Compound 77, 2-((3aR,4S,6aS)-4-Amino-hexahydro-cyclopenta-[c]pyrrol-2-yl)-5-(2,3-dichloro-phenyl)-6-methyl-pyrimidine-4-carboxylic acid amide] | – | > 10 | – |
| Cc1nc(N2C[C@@H](N)[C@@H](O)C2)nc(C(N)=O)c1-c1cccc(Cl)c1Cl [Compound 80, 2-((3R,4S)-3-Amino-4-hydroxy-pyrrolidin-1-yl)-5-(2,3-dichloro-phenyl)-6-methyl-pyrimidine-4-carboxylic acid amide] | – | 5.3 | – |
| Cc1nc(N2CCC(C)(N)CC2)nc(C(N)=O)c1-c1ccc(F)cc1Cl [Compound 82, 2-(4-Amino-4-methyl-piperidin-1-yl)-5-(2-chloro-4-fluoro-phenyl)-6-methyl-pyrimidine-4-carboxylic acid amide] | – | 2 | – |
| Cc1nc(N2CCC(C)(N)CC2)nc(C(N)=O)c1-c1cnccc1Cl [Compound 83, 2-(4-Amino-4-methyl-piperidin-1-yl)-5-(4-chloro-pyridin-3-yl)-6-methyl-pyrimidine-4-carboxylic acid amide] | – | 14 | – |
| Cc1nc(N2C[C@H](N)[C@@H](O)C2)nc(C(N)=O)c1-c1cccc(Cl)c1Cl [Compound 84, 2-((3S,4S)-3-Amino-4-hydroxy-pyrrolidin-1-yl)-5-(2,3-dichloro-phenyl)-6-methyl-pyrimidine-4-carboxylic acid amide] | – | 6.3 | – |
| Cc1nc(N2CCC(C)(N)CC2)nc(C(N)=O)c1-c1ccncc1 [Compound 86, 2-(4-Amino-4-methyl-piperidin-1-yl)-6-methyl-5-pyridin-4-yl-pyrimidine-4-carboxylic acid amide] | – | > 10 | – |
| CC1(N)CCCN(c2nc(N)c(-c3cccc(Cl)c3Cl)c(C(N)=O)n2)CC1 (stereo not drawn) [Compound 91, 6-Amino-2-(4-amino-4-methyl-azepan-1-yl)-5-(2,3-dichloro-phenyl)-pyrimidine-4-carboxylic acid amide] | – | 0.1 | 2.6 |
| Cc1nc(N[C@H]2CC[C@@H](N)CC2)nc(C(N)=O)c1-c1cccc(Cl)c1Cl [Compound 93, 2-(4-Amino-cyclohexyl-amino)-5-(2,3-dichloro-phenyl)-6-methyl-pyrimidine-4-carboxylic acid amide] | – | 2.3 | – |
| Cc1nc(N2CCC(C)(N)CC2)nc(C(N)=O)c1-c1cccc(C(F)(F)F)c1Cl [Compound 111, 2-(4-Amino-4-methyl-piperidin-1-yl)-5-(2-chloro-3-trifluoromethyl-phenyl)-6-methyl-pyrimidine-4-carboxylic acid amide] | – | 0.53 | 4.7 |
| Cc1nc(N2CCC3(CC2)Oc2ncccc2[C@@H]3N)nc(C(N)=O)c1-c1cccc(Cl)c1Cl [Compound 125, (4M)-2-[(3S)-3-amino-3H-spiro[furo[2,3-b]pyridine-2,4′-piperidin]-1′-yl]-5-(2,3-dichlorophenyl)-6-methylpyrimidine-4-carboxamide] | – | 0.53 | – |
| Cc1nc(N2CCC3(CC2)Oc2ncccc2[C@@H]3N)nc(C(N)=O)c1-c1cccc(Cl)c1Cl [Compound 127, (4P)-2-[(3S)-3-amino-3H-spiro[furo[2,3-b]pyridine-2,4′-piperidin]-1′-yl]-5-(2,3-dichlorophenyl)-6-methylpyrimidine-4-carboxamide] | – | > 10 | – |
